Experimental data: publication PMC11588021, “Sequence-defined phosphoestamers for selective inhibition of the KRAS^G12D/RAF1 interaction” (Chemical Science, 2024)
Several values for one entry are separate records, joined by “and”; a condition that tells them apart may be missing. Identical values can stand only once. Entries after “also recorded” stand apart in the source; their conditions may differ.

Key:
[1] = biological target: T1, KRAS^G12D-GMPPnP / RAF1-RBD-GFP interaction (Homo sapiens, UniProt P01116, G12D); assay: KRAS^G12D/RAF1-RBD interaction assay (plate coated with KRAS, RAF1-RBD-GFP fluorescence); type: biochemical
T1 construct: and KRas4B(1-169)[G12D], optimised for expression in E.coli; His6 (N); Avi tag (biotinylated with BirA) (N); TEV site (N); made in house; host or cells: E. coli BL21(DE3) Gold for KRAS; E. coli BL21(DE3) for RAF1-RBD-GFP
Method: Phosphoestamers O1–O6 were resynthesised on a 1 μmol scale using the DNA synthesiser and the yields were determined by manually cleaving the final DMT protecting group of each molecule and quantifying the DMT cation by UV-visible spectroscopy (ESI Section 2.4 ^†). The achievement of desired length and purity was confirmed by polyacrylamide gel electrophoresis (Fig. 5a). The resynthesised phosphoestamers were purified away from smaller molecules using C18 spin tips. To ensure the assay was viable, a positive control Ch-3 (Fig. 5a) known to disrupt KRAS^G12D interactions[50] was synthesised. […] Any KRAS sites not blocked by the phosphoestamers would interact with the RAF1-GFP and result in a fluorescent signal which would be detected. In this assay, we first established that both KRAS^G12D-GMPPnP and RAF1-RBD-GFP were required to give a fluorescence signal.
To the 96 well plate, 100 µL was added to each well containing 2 µg/mL KRASG12D-GMPPnP or KRASWT-GMPPnP in coating buffer (see buffers, page 3). […] The emission spectrum o f GFP (490 – 560 nm) was measured on the plate reader.
GraphPad Prism (9.5.1) was used to calculate the area under the curve (AUC) of the emission spectra between 490 and 540 nm. IC50 values were calculated on GraphPad Prism, using the non-linea r regression fit (Sigmoidal, 4PL, X is concentration) analysis. […]

[2] = system: KRAS^G12D (inactive GDP-form); design: method as in PMID 34889605; conditions: binds to the inactive GDP-form of the protein; cited from earlier work
[3] = biological target: T2, KRAS^WT-GMPPnP / RAF1-GFP interaction (Homo sapiens, UniProt P01116); assay: KRAS^WT/RAF1-RBD interaction assay (same plate assay); type: biochemical; conditions: 'high' and 'low' concentrations, approximately IC50 ÷ 3 and IC50 × 3
T2 construct: and KRas4B(1-169)[G12D], optimised for expression in E.coli; His6 (N); Avi tag (biotinylated with BirA) (N); TEV site (N); made in house; host or cells: E. coli BL21(DE3) Gold for KRAS; E. coli BL21(DE3) for RAF1-RBD-GFP
Method: Since four phosphoestamers were determined to have consistent dissociation activity between KRAS^G12D-GMPPnP and RAF1-GFP, we then used the same assay to determine whether these molecules would have any activity against KRAS^WT-GMPPnP or whether they would be selective for the mutant form (Fig. 5e).
To the 96 well plate, 100 µL was added to each well containing 2 µg/mL KRASG12D-GMPPnP or KRASWT-GMPPnP in coating buffer (see buffers, page 3). The plate was shaken on a plate rotator at 300 rpm and left to incubate at 4 °C overnight. After incubation, the KRASG12D/WT solution was removed, and the plate was then washed with 100 µL per well of blocking buffer twice. 100 µL of blocking buffer was then added per well and the plate was incubated at 37 °C for one hour. […] The emission spectrum o f GFP (490 – 560 nm) was measured on the plate reader.
GraphPad Prism (9.5.1) was used to calculate the area under the curve (AUC) of the emission spectra between 490 and 540 nm. IC50 values were calculated on GraphPad Prism, using the non-linea r regression fit (Sigmoidal, 4PL, X is concentration) analysis.
To the well plate, 100 µL was added to each well containing 2 µg/mL of the 4:1 conjugate of KRASG12D-G M PP nP -streptavidin fluorescein in coating buffer. […] The emission spectrum of fluorescein (500 – 600 nm) was measured using the plate reader. […]

Compound: COc1cccc(-c2ccc(Nc3ccc(CN(C)C)cc3)c(OC)c2F)c1 [Ch-3, reference compound]
- IC50 ([1]; positive control, n = 3): 6350 ± 200 nM

Compound: C#Cc1c(F)ccc2cc(O)cc(-c3ncc4c(N5CC6CCC(C5)N6)nc(OC[C@@]56CCCN5C[C@H](F)C6)nc4c3F)c12 [MRTX1133]
- IC50 [2]: 5 nM

Compound: NDI-C12-C12-C12-NDI-BPA [Phosphoestamer O2]
- IC50 ([1]; AUC of GFP emission 490-540 nm, three biological repeats (O4 n = 4)): < 100 nM and 70.9 nM
- Effect on KRAS^WT-GMPPnP/RAF1-GFP interaction [3]: only O5 caused a decrease in fluorescent signal; also recorded: inactive
